Data published in patent US8349868B2, “Azaquinolones that inhibit prolyl hydroxylase” (Amgen Inc., priority 2007, dated 2013).

What was measured:
Format in all cases: biochemical
[1] = target: T1, Collagen Prolyl Hydroxylase II (CPH2) (Homo sapiens, UniProt O15460); experiment: Collagen prolyl hydroxylase II activity by radiometric HPLC measurement of 2-oxoglutarate conversion to succinic acid; conditions: Table 5; 50 μM 2-oxoglutarate, 100 μM PPG10, 10 μM FeSO4
T1 construct: made in house; host or cells: Trichoplusia ni insect cells (baculovirus)
Protocol: Assay conditions were established in separate studies to define dependence on dithiothreitol (DTT), ascorbate, and catalase, and to define reaction linearity and Km values for 2-oxoglutarate (2-OG; PerkinElmer LAS, Shelton, Conn. or Moravek Biochemicals, Brea, Calif.), FeSO4, and (Pro-Pro-Gly)10 peptide (PPG10; Peptides International, Louisville, Ky.). […] Product inhibition was not evident. Compounds were dissolved and serially diluted in 100% DMSO for potency determination. Assay Buffer consisted of Tris-HCl, pH 7.5, 0.2 mM DTT, and 0.5 mg/ml catalase. PPG10 peptide was dissolved in 0.25% acetic acid and denatured by boiling for 5 minutes then placed on ice for 5 minutes. The denatured PPG10 was then pre-mixed with 1 M ascorbate, prepared in water, and the mixture diluted with Assay Buffer to yield a working solution of 5× peptide and ascorbate. FeSO4 was freshly dissolved in water and diluted to a 2.8× concentration in Assay Buffer. Enzyme stocks were diluted to a 5× concentration in Assay Buffer. Example compounds plus FeSO4 solution were mixed, followed by addition of 5× enzyme solutions. After 10 minutes gentle mixing at room temperature, the 5× peptide solution was added. After another 10 minutes gentle mixing at room temperature, a 5× stock of 2-OG was added to initiate the reaction. Final concentrations in the assay were: 50 mM Tris-HCl, pH 7.5, 0.2 mM DTT, 0.5 mg/mL catalase, 10 μM FeSO4, 100 μM PPG10, 50 μM 5-[^14C]-2-oxoglutarate ([…]), 1 mM ascorbate, and 4% DMSO. Reactions were gently mixed at room temperature for 1 hour and terminated by addition of an equal volume of 0.02 NH2SO4. Unless otherwise indicated, all reagents were obtained from Sigma and were the highest grade available.
A portion of each terminated reaction was auto-injected into a Polypore H column (PerkinElmer, Waltham, Mass.) at a rate of 0.3 mL/min with 0.01 N H2SO4 as the mobile phase. The HPLC method employed exploits the difference in pKa of the 2-OG and SA carboxylates to chromatographically separate substrate from product at low pH on ion-exchange resin, as described by Cunliffe, et al (Biochem J., 240, 617-619 (1986)) and Kaule and Gunzler (Anal. Biochem., 184, 291-297 (1990)). An Agilent 1100 HPLC System with dual quaternary pumps, column switching valve, and dual columns was used to resolve product from substrate. The Agilent 1100 Multiple Wavelength Detector indicated UV absorption of the substrate and product peaks at 210 nm and a Beta-RAM Model 2 radiation detector with In-Flow 2:1 scintillation cocktail (IN/US Systems Inc.) enabled quantitation of the 2 radioactive peaks. Laura Lite software (IN/US, Tampa, Fla.) was used to collect and analyze radiometric data. AUC measurements were converted to percent turnover of 2-OG. To standardize across studies, 2-OG conversion was normalized to percent of control (POC) values using reactions that lacked enzyme or inhibitor as low and high controls, respectively. POC data was fitted to the 4-parameter logistic model (A+((B−A)/(1+((x/C)^D)))) using ActivityBase (IDBS, Alameda Calif.) where A is the minimum POC value, B is the maximum POC value, D is the slope factor, and C is compound concentration at the inflection point (IC50, micromolar).
The Baculovirus Expression Vector System (BEVS) from Invitrogen was used to express collagen prolyl 4-hydroxylase (CPH) in Trichoplusia ni insect cells. Active collagen prolyl 4-hydroxylase is an oligomeric protein that exists as an α2β2 tetramer. The alpha subunits incorporated into the tetramer can be either collagen prolyl 4-hydroxylase α1 (GenBank reference sequence NM_000917) or collagen prolyl 4-hydroxylase α2 (GenBank reference sequence NM_004199). The beta subunit, collagen prolyl 4-hydroxylase β (GenBank reference sequence NM_000918), is common to both forms of the tetramer. […]

[2] = target: HIF PHD2 (Homo sapiens, UniProt Q9GZT9); experiment: PHD2 inhibition assay, TR-FRET detection with VCB-Eu
Protocol: Inhibition of HIF PHD2 activity was quantified utilizing the TR-FRET technology. HIF PHD2 catalyzes a hydroxyl modification on the proline residue of the P564-HIF1α peptide substrate (Biotin-[…] (SEQ ID NO: 7)) resulting in recognition and binding of the europylated Von Hippel-Lindau protein (pVHL), elongin B and elongin C heterotrimeric (VCB-Eu) complex.
The PHD2 inhibition assay was executed by addition of freshly dissolved FeCl2 to 178.57 μM (100 μM final concentration) in PHD2 Reaction Buffer containing 30 mM MES, pH 6, 10 mM NaCl, 0.25% Brij-35, 0.01% BSA, and 1% DMSO. 28 μL of the iron solution and 2 μL of inhibitor compounds serially diluted in 100% DMSO (5% DMSO final) were added to black polypropylene 96-well microtiter plates. To that, 10 μL of 10 nM PHD2 (2 nM final) was added to all wells of the plate except for the 8 wells of column 12 (LO control), and allowed to incubate at room temperature on the shaker for one hour. Column 6 was the HI control containing PHD2 enzyme and 5% DMSO vehicle, but no inhibitor compound. To initiate the PHD2 enzymatic reaction, 10 μL of a solution containing 500 nM P564-HIF1α peptide (100 nM final), 10 mM ascorbic acid (2 mM final), and 1.25 μM 2-oxoglutarate (α-ketoglutarate; 0.25 μM final) in PHD2 Reaction Buffer was added to all wells of the plate and allowed to incubate on the shaker at room temperature for one hour.
The reaction was terminated by addition of 25 μL TR-FRET Buffer (50 mM TRIS-HCl, pH 9, 100 mM NaCl, 0.05% BSA, and 0.5% Tween-20) containing 150 mM succinate (product inhibitor; 50 mM final), 75 nM streptavidin-APC (25 nM final), and 7.5 nM VCB-Eu (2.5 nM final). The TR-FRET detection reagents were placed on a shaker for 1 hour to reach binding equilibrium before reading on the Discovery platform (PerkinElmer). Europium is excited at 315 nm and phosphoresces at 615 nm with a large Stoke's shift. APC, in turn, emits at 655 nm upon excitation at 615 nm. The TR-FRET signal is measured as the ratio of the APC 655 nm signal divided by the internal europium reference 615 nm emission signal.
The POC (percentage of control) was determined by comparing the signal from hydroxylated peptide substrate in the enzyme reaction containing inhibitor compound with that from PHD2 enzyme with DMSO vehicle alone (HI control), and no enzyme (LO control). POC was calculated using the formula: % control (POC)=(cpd−average LO)/(average HI−average LO)*100. Data (consisting of POC and inhibitor concentration in μM) was fitted to a 4-parameter equation (y=A+((B−A)/(1+((x/C)^[…]))), where A is the minimum y (POC) value, B is the maximum y (POC), C is the x (cpd concentration) at the point of inflection and D is the slope factor) using a Levenburg-Marquardt non-linear regression algorithm.

[3] = target: T2, Collagen Prolyl Hydroxylase I (CPH1) (Homo sapiens, UniProt P13674); experiment: Collagen prolyl hydroxylase I activity by radiometric HPLC measurement of 2-oxoglutarate conversion to succinic acid; conditions: Table 5; 50 μM 2-oxoglutarate, 100 μM PPG10, 10 μM FeSO4
T2 construct: made in house; host or cells: Trichoplusia ni insect cells (baculovirus)
Protocol: Product inhibition was not evident. Compounds were dissolved and serially diluted in 100% DMSO for potency determination. Assay Buffer consisted of Tris-HCl, pH 7.5, 0.2 mM DTT, and 0.5 mg/ml catalase. PPG10 peptide was dissolved in 0.25% acetic acid and denatured by boiling for 5 minutes then placed on ice for 5 minutes. The denatured PPG10 was then pre-mixed with 1 M ascorbate, prepared in water, and the mixture diluted with Assay Buffer to yield a working solution of 5× peptide and ascorbate. FeSO4 was freshly dissolved in water and diluted to a 2.8× concentration in Assay Buffer. Enzyme stocks were diluted to a 5× concentration in Assay Buffer. Example compounds plus FeSO4 solution were mixed, followed by addition of 5× enzyme solutions. After 10 minutes gentle mixing at room temperature, the 5× peptide solution was added. After another 10 minutes gentle mixing at room temperature, a 5× stock of 2-OG was added to initiate the reaction. Final concentrations in the assay were: 50 mM Tris-HCl, pH 7.5, 0.2 mM DTT, 0.5 mg/mL catalase, 10 μM FeSO4, 100 μM PPG10, 50 μM 5-[^14C]-2-oxoglutarate (23-37 cpm/μmol), 1 mM ascorbate, and 4% DMSO. Reactions were gently mixed at room temperature for 1 hour and terminated by addition of an equal volume of 0.02 NH2SO4.
A portion of each terminated reaction was auto-injected into a Polypore H column (PerkinElmer, Waltham, Mass.) at a rate of 0.3 mL/min with 0.01 N H2SO4 as the mobile phase. […] An Agilent 1100 HPLC System with dual quaternary pumps, column switching valve, and dual columns was used to resolve product from substrate. The Agilent 1100 Multiple Wavelength Detector indicated UV absorption of the substrate and product peaks at 210 nm and a Beta-RAM Model 2 radiation detector with In-Flow 2:1 scintillation cocktail (IN/US Systems Inc.) enabled quantitation of the 2 radioactive peaks. Laura Lite software (IN/US, Tampa, Fla.) was used to collect and analyze radiometric data. AUC measurements were converted to percent turnover of 2-OG. To standardize across studies, 2-OG conversion was normalized to percent of control (POC) values using reactions that lacked enzyme or inhibitor as low and high controls, respectively. POC data was fitted to the 4-parameter logistic model (A+((B−A)/(1+((x/C)^D)))) using ActivityBase (IDBS, Alameda Calif.) where A is the minimum POC value, B is the maximum POC value, D is the slope factor, and C is compound concentration at the inflection point (IC50, micromolar).

[4] = Table 5, Example and Comparative Compounds
[5] = Table 4, TR-FRET, 2 nM PHD2, 100 nM P564-HIF1α peptide, 0.25 μM 2-oxoglutarate

T1 sequence (O15460 22-533 isoform O15460-2): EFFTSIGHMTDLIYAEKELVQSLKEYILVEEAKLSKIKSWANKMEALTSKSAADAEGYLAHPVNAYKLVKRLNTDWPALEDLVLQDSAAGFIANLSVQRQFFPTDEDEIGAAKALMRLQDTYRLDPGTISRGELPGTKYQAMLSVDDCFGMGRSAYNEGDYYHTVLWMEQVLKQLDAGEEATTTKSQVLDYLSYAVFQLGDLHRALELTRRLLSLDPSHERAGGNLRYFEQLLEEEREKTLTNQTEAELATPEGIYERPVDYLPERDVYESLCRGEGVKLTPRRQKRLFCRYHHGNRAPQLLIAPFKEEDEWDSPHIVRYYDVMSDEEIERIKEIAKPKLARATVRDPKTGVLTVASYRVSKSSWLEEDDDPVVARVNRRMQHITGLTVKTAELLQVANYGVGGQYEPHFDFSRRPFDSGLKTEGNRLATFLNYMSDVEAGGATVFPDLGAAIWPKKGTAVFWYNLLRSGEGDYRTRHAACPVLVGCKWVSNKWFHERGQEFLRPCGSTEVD
T1 sequence (P07237 18-508 partner): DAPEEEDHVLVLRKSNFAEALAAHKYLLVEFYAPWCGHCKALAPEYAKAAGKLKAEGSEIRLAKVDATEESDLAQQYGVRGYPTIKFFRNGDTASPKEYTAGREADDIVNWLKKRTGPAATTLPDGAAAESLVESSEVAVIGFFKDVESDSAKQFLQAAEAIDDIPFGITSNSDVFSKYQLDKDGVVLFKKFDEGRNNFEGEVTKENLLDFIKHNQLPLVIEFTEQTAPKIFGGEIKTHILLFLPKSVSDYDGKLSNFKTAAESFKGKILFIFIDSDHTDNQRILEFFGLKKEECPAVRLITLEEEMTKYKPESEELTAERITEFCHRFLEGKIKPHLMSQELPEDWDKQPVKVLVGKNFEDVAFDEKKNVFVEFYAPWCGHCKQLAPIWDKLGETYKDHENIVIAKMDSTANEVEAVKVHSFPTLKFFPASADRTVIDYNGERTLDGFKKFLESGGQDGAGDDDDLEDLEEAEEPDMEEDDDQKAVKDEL
T2 sequence (P13674 18-534 isoform P13674-2): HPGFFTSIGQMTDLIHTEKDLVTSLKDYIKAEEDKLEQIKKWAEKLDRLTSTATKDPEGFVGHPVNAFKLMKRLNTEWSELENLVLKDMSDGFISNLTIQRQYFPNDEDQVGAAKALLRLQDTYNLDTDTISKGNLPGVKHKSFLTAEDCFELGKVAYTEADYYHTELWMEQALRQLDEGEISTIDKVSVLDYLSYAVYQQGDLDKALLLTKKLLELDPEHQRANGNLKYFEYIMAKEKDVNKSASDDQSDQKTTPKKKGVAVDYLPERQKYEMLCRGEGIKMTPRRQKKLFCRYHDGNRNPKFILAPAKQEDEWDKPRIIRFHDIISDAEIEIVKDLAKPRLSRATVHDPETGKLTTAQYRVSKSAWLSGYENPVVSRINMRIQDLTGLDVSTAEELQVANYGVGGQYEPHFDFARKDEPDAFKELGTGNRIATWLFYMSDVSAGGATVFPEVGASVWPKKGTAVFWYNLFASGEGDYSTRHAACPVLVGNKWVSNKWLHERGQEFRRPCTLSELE
T2 sequence (P07237 18-508 partner): as the sequence (P07237 18-508 partner) above
Chain of HIF PHD2 (Q9GZT9 whole entry): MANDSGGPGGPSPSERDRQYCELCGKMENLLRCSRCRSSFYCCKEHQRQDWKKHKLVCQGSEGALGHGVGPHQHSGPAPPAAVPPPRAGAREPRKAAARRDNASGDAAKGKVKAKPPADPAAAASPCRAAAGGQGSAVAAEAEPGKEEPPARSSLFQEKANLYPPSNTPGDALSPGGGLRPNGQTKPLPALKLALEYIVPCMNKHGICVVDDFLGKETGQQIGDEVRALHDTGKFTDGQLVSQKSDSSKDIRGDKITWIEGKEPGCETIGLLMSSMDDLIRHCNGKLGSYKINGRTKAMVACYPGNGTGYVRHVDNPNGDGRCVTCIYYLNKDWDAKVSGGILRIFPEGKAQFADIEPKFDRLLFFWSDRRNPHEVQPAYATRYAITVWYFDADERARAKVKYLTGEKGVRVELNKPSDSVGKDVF

| Compound | IC50 [1] [nM] | IC50 [2, 4] [nM] | IC50 [3] [nM] | IC50 [2, 5] [nM] |
| --- | --- | --- | --- | --- |
| Cn1c(=O)c(C(=O)NCC(=O)O)c(O)c2c(Br)cccc21 [Comparative Compound 1, reference compound] | 58 | 188 | 341 |  |
| Cn1c(=O)c(C(=O)NCC(=O)O)c(O)c2cc(Br)ccc21 [Comparative Compound 2, reference compound] | 115 | 351 | 404 |  |
| Cn1c(=O)c(C(=O)NCC(=O)O)c(O)c2ccc(Br)cc21 [Comparative Example 3, reference compound] | 111 | 46 | 351 |  |
| Cn1c(=O)c(C(=O)NCC(=O)O)c(O)c2cccc(Br)c21 [Comparative Example 4, reference compound] | 261 | 104 | 503 |  |
| Cn1c(=O)c(C(=O)CCC(=O)O)c(O)c2cc(I)cnc21 [Example 1, 4-(4-hydroxy-6-iodo-1-methyl-2-oxo-1,2-dihydro-1,8-naphthyridin-3-yl)-4-oxobutanoic acid] |  |  |  | 208 |
| Cn1c(=O)c(C(=O)CCC(=O)O)c(O)c2cccc(Br)c21 [Example 2, 4-(8-bromo-4-hydroxy-1-methyl-2-oxo-1,2-dihydroquinolin-3-yl)-4-oxobutanoic acid] | 1870 |  | 22700 | 775 |

Results, then the compound that gave them:

| IC50 [1] [nM] | IC50 [2, 4] [nM] | IC50 [3] [nM] | IC50 [2, 5] [nM] | Compound |
| --- | --- | --- | --- | --- |
|  |  |  | 64.5 | Cn1c(=O)c(C(=O)CCC(=O)O)c(O)c2ccc(C(F)(F)F)nc21 [Example 3, 4-(4-hydroxy-1-methyl-2-oxo-7-(trifluoromethyl)-1,2-dihydro-1,8-naphthyridin-3-yl)-4-oxobutanoic acid] |
| 13400 | 64.9 |  | 64.9 | Cn1c(=O)c(C(=O)CCC(=O)O)c(O)c2ccc(Br)cc21 [Example 4, 4-(7-bromo-4-hydroxy-1-methyl-2-oxo-1,2-dihydroquinolin-3-yl)-4-oxobutanoic acid] |
|  |  |  | 566 | Cn1c(=O)c(C(=O)CCC(=O)O)c(O)c2ccccc21 [Example 5, 4-(4-hydroxy-1-methyl-2-oxo-1,2-dihydroquinolin-3-yl)-4-oxobutanoic acid] |
|  |  |  | 135 | O=C(O)CCC(=O)c1c(O)c2ccc(F)c(F)c2n(Cc2ccccc2)c1=O [Example 6, 4-(1-benzyl-7,8-difluoro-4-hydroxy-2-oxo-1,2-dihydroquinolin-3-yl)-4-oxobutanoic acid] |
| 3820 |  |  | 309 | Cn1c(=O)c(C(=O)CCC(=O)O)c(O)c2cc(Br)ccc21 [Example 7, 4-(6-bromo-4-hydroxy-1-methyl-2-oxo-1,2-dihydroquinolin-3-yl)-4-oxobutanoic acid] |
| 5280 |  |  | 343 | Cn1c(=O)c(C(=O)CCC(=O)O)c(O)c2c(Br)cccc21 [Example 8, 4-(5-bromo-4-hydroxy-1-methyl-2-oxo-1,2-dihydroquinolin-3-yl)-4-oxobutanoic acid] |
|  |  |  | 779 | Cn1c(=O)c(C(=O)CCC(=O)O)c(O)c2c(F)ccc(F)c21 [Example 9, 4-(5,8-difluoro-4-hydroxy-1-methyl-2-oxo-1,2-dihydroquinolin-3-yl)-4-oxobutanoic acid] |
|  |  |  | 285 | Cn1c(=O)c(C(=O)CCC(=O)O)c(O)c2ccc(F)c(F)c21 [Example 10, 4-(7,8-difluoro-4-hydroxy-1-methyl-2-oxo-1,2-dihydroquinolin-3-yl)-4-oxobutanoic acid] |
|  |  |  | 11.4 | Cn1c(=O)c(C(=O)CCC(=O)O)c(O)c2ccc(-c3ccc(C(=O)O)cc3)cc21 [Example 11, 4-(3-(3-carboxypropanoyl)-4-hydroxy-1-methyl-2-oxo-1,2-dihydroquinolin-7-yl)benzoic acid] |
